Reference: patent US20140221201A1, “INSECTICIDAL ACTIVE MIXTURES COMPRISING ARYLQUINAZOLINONE COMPOUNDS” (priority 2011, published 2014)

Legend:
Type in all cases: in vivo
[1] = system: Green Peach Aphid (Myzus persicae); test: Test B.3 Control of green peach aphid, systemic, liquid artificial diet under membrane; settings: 3 days
Excerpt: Test B.3 Control of Green Peach Aphid (Myzus persicae)
For evaluating control of green peach aphid (Myzus persicae) through systemic means the test unit consisted of 96-well-microtiter plates containing liquid artificial diet under an artificial membrane.
The compounds or mixtures were formulated using a solution containing 75% water and 25% DMSO. Different concentrations of formulated compounds or mixtures were pipetted into the aphid diet, using a custom built pipetter, at two replications.
(§1) For experimental mixtures in these tests identical volumes of both mixing partners at the desired concentrations respectively, were mixed together.
After application, 5 -8 adult aphids were placed on the artificial membrane inside the microtiter plate wells. The aphids were then allowed to suck on the treated aphid diet and incubated at about 23±1° C. and about 50±5% RH for 3 days. Aphid mortality and fecundity was then visually assessed.

[2] = system: Tobacco Budworm (Heliothis virescens); test: Test B.6 Control of tobacco budworm, eggs on sprayed insect diet in 96-well microtiter plates; settings: 5 days
Procedure: Test B.6 Control of Tobacco Budworm (Heliothis virescens)
For evaluating control of tobacco budworm (Heliothis virescens) the test unit consisted of 96-well-microtiter plates containing an insect diet and 15-25 H. virescens eggs.
The compounds or mixtures were formulated using a solution containing 75% water and 25% DMSO. Different concentrations of formulated compounds or mixtures were sprayed onto the insect diet at 10 μl, using a custom built micro atomizer, at two replications.
as §1
After application, microtiter plates were incubated at 28±1° C., 80±5% RH for 5 days. Egg and larval mortality was then visually assessed.

[3] = system: Vetch Aphid (Megoura viciae); test: Test B.1 Control of vetch aphid, sprayed broad bean leaf disks in 24-well microtiter plates; settings: 5 days
Procedure: Test B.1 Control of Vetch Aphid (Megoura viciae)
For evaluating control of vetch aphid (Megoura viciae) through contact or systemic means the test unit consisted of 24-well-microtiter plates containing broad bean leaf disks.
The compounds or mixtures were formulated using a solution containing 75% water and 25% DMSO. Different concentrations of formulated compounds or mixtures were sprayed onto the leaf disks at 2.5 μl, using a custom built micro atomizer, at two replications.
For experimental mixtures in these tests identical volumes of both mixing partners at the desired concentrations respectively, were mixed together. After application, the leaf disks were air-dried and 5-8 adult aphids placed on the leaf disks inside the microtiter plate wells. The aphids were then allowed to suck on the treated leaf disks and incubated at about 23±1° C. and about 50±5% RH (relative humidity) for 5 days. Aphid mortality and fecundity was then visually assessed.

[4] = system: Boll Weevil (Anthonomus grandis); test: Test B.2 Control of boll weevil, eggs on sprayed insect diet in 24-well microtiter plates; settings: 5 days
Procedure: Test B.2 Control of Boll Weevil (Anthonomus grandis)
For evaluating control of boll weevil (Anthonomus grandis) the test unit consisted of 24-well-microtiter plates containing an insect diet and 20-30 A. grandis eggs.
The compounds or mixtures were formulated using a solution containing 75% water and 25% DMSO. Different concentrations of formulated compounds or mixtures were sprayed onto the insect diet at 20 μl, using a custom built micro atomizer, at two replications.
as §1
After application, microtiter plates were incubated at about 23±1° C. and about 50±5% RH for 5 days. Egg and larval mortality was then visually assessed.

[5] = system: Yellow fever mosquito (Aedes aegyptii); test: Test B.4 Control of yellow fever mosquito, curative ultrasonic spraying of larvae in liquid diet; settings: 2 DAT
Procedure: Test B.4 Control of Yellow fever mosquito (Aedes aegyptii) Test principle: Curative ultrasonic spraying of larvae in liquid diet
For evaluating control of Aedes aegyptii, the assay was conducted in microtiter plates (MTP's), wherein each well was filled with 0.2 ml of a Aedes aegyptii suspension of 5 to 15 freshly hatched larvae in a liquid diet of 200 ppm yeast in water, prepared directly before spraying.
The compounds were formulated at desired concentration using a solution containing 75% v/v water and 25% v/v DMSO. Different concentrations of formulated compounds were applied at 2.5 μl, using a ultrasonic spraying, at two replications.
The MTPs were sealed with the matching lids in a climatized test chamber at about 28° C.+1° C. and about 80+5% RH (relative humidity) and at 3500+500 lux of fluorescent light.
Assessment was made 2 days after treatment (DAT) using as criterion movement of the larvae. Valid assessment values were at level 0, 50 and 100, wherein 100 indicates no movement, 50 indicates few movement and 0 indicates moderate to high movement.

[6] = system: Caenorhabditis elegans; test: Test B.5 Control of Caenorhabditis elegans, curative ultrasonic spraying of nematodes in liquid diet; settings: 4 DAT
Procedure: Test B.5 Control of Caenorhabditis elegans Test principle: Curative ultrasonic spraying of nematodes in liquid diet
For evaluating control of Caenorhabditis elegans the test unit consisted of microtiter plates (MTP), wherein each well was filled with 0.18 ml of a C. Elegans suspension containing 60 to 100 individuals of C. elegans at mixed life stages in a liquid diet.
The compounds were formulated at desired concentration using a solution containing 75% v/v water and 25% v/v DMSO. Different concentrations of formulated compounds were applied at 5 μl by ultrasonic spraying onto the liquid diet, at two replications. After application, the treated microtiterplates were incubated in a climatized test chamber at temperature of about 18+/−1° C. and 70+/−5% RH in the dark.
Assessment was made 4 days after treatment (DAT) using as criterion movement of nematodes. Valid assessment values were at level 0, 50 and 100, wherein 100 indicates no movement, 50 indicates few movement and 0 indicates moderate to high movement.

[7] = alpha cypermethrin alone, 10 ppm
[8] = alphacypermethrin alone, 0.4 ppm

In the case of `CC1(C)C(C=C(Cl)Cl)C1C(=O)OC(C#N)c1cccc(Oc2ccccc2)c1` (stereo not drawn) [Alpha cypermethrin, alpha-cypermethrin], the Average control % [1, 7] is reported as 0%, the Average control % [2, 8] is reported as 0% and the Average control % ([3]; alpha cypermethrin alone, 2 ppm) is reported as 0%. The Average control % [4, 7] was 0%, the Average control % [4, 8] was 0% and the Average control % [5, 7] was 0%.
`Cc1cc(F)c(-n2cnc3ccc(F)cc3c2=O)cc1[S+]([O-])CC(F)(F)F` (stereo not drawn) [CE.I.31, 6-Fluoro-3-[2-fluoro-4-methyl-5-2(2,2,2-trifluoroethanesulfinyl)-phenyl]-3H-quinazolin-4-one] was tested, and the Average control % ([2]; CE.I.31 alone, 2000 ppm) was 0%.
In the case of `Cc1cc(F)c(-n2cnc3ccccc3c2=O)cc1SCC(F)(F)F` [CE.I.34, 2-(2,2,2-trifluoroethylsufanyl)-4-(4-oxo-quinazolin-3-yl)-5-fluoro-toluol], the Average control % ([6]; CE.I.34 alone, 100 ppm) is reported as 0%, the Average control % ([1]; CE.I.34 alone, 4 ppm) is reported as 0% and the Average control % ([3]; CE.I.34 alone, 100 ppm) is reported as 0%. The Average control % ([4]; CE.I.34 alone, 100 ppm) was 0%.
`Cc1cc(F)c(-n2cnc3ccccc3c2=O)cc1[S+]([O-])CC(F)(F)F` (stereo not drawn) [CE.I.35, 2-(2,2,2-trifluoroethylsufinyl)-4-(4-oxo-quinazolin-3-yl)-5-fluoro-toluol] showed an Average control % ([4]; CE.I.35 alone, 500 ppm) of 0%, an Average control % ([4]; CE.I.35 alone, 2500 ppm) of 0% and an Average control % ([5]; CE.I.35 alone, 4 ppm) of 0%. The Average control % ([5]; CE.I.35 alone, 500 ppm) was 0% and the Average control % ([5]; CE.I.35 alone, 2500 ppm) was 0%.
For `CCOCn1c(-c2ccc(Cl)cc2)c(C#N)c(Br)c1C(F)(F)F` [Chlorfenapyr, chlorfenapyr], the Average control % ([6]; chlorfenapyr alone, 10 ppm) was 0%.
With `CCC(C)(C)C(=O)OC1=C(c2ccc(Cl)cc2Cl)C(=O)OC12CCCCC2` [Spirodiclofen, spirodiclofen] the Average control % ([2]; spirodiclofen alone, 3.2 ppm) was 0%.
For `Cc1cc(C)c(C2=C(OC(=O)CC(C)(C)C)C3(CCCC3)OC2=O)c(C)c1` [Spiromesifen, spiromesifen], the Average control % ([4]; spiromesifen alone, 500 ppm) was 0%.
Molecule abamectin has an Average control % ([5]; abamectin alone, 2 ppm) of 0%.
In the case of spinosad, the Average control % ([5]; spinosad alone, 2 ppm) is reported as 0%.
